Experimental data from publication PMC12594208, “SLC25A45 is required for mitochondrial uptake of methylated amino acids and de novo carnitine biosynthesis” (Molecular Cell, 2025).

Key:
SLC25A45-8xHis [1] = target: T1, SLC25A45-8xHis (Homo sapiens, UniProt Q8N413); experiment: uptake by isolated mitochondria, LC-MS; format: biochemical; conditions: 10 μM; pH 7.25, room temperature; labelled compound
T1 construct: SLC25A45-Xa-8xHis, tag kept; in mitochondria isolated from FreeStyle 293-F cells
T1 sequence (Q8N413 1-288): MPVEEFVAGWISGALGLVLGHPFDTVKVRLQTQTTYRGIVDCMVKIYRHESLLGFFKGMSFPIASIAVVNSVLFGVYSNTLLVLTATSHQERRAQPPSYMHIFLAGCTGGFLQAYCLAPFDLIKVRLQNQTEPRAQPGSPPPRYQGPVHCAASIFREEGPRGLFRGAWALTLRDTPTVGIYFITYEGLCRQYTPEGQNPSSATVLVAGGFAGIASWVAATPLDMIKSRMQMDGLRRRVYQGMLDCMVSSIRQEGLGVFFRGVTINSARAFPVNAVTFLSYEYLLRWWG

purified human SLC25A45 = target: T2, purified human SLC25A45 (Homo sapiens, UniProt Q8N413); experiment: nanoDSF thermostability shift; format: binding; conditions: 10 mM compound, 20 mM HEPES pH 7.0, 50 mM NaCl, cardiolipin/LMNG, 25-95 °C at 4 °C per min
T2 construct: codon-optimised; N-terminal extension GKPRTSPK (residues 14-21 of human oxoglutarate carrier), eight-His tag and Factor Xa site, Factor Xa cleaved; from S. cerevisiae BJ2168 mitochondria; 33,118 Da; in lauryl maltose neopentyl glycol / tetraoleoyl cardiolipin
T2 sequence (Q8N413 1-288): T1 sequence (Q8N413 1-288)

SLC25A45-8xHis [2] = target: T1, SLC25A45-8xHis; experiment: competition of [2H9]-TML uptake by isolated mitochondria, LC-MS; format: biochemical; conditions: 10 mM unlabelled TML against 10 μM [2H9]-TML, 10 min, pH 7.25, room temperature

CN(C)C(=N)NCCC[C@H](N)C(=O)O [[^2H6]-ADMA]
uptake by isolated mitochondria, LC-MS (SLC25A45-8xHis [1]): SLC25A45 was also required for the mitochondrial uptake of the deuterium-labeled dimethylarginine isomers

CN=C(NC)NCCC[C@H](N)C(=O)O [[^2H6]-SDMA]
uptake by isolated mitochondria, LC-MS (SLC25A45-8xHis [1]): SLC25A45 was also required for the mitochondrial uptake of the deuterium-labeled dimethylarginine isomers

C[N+](C)(C)CCCC[C@H](N)C(=O)O [trimethyllysine]
ΔTm (purified human SLC25A45): 3.4 °C
competition of [2H9]-TML uptake by isolated mitochondria, LC-MS (SLC25A45-8xHis [2]): mitochondrial import of [^2H9]-TML was abolished by co-incubation with excess unlabeled trimethyllysine

dimethylarginine
ΔTm (purified human SLC25A45; isomer not told): 7.5 °C
